This test deals with T1, ΔF508-CFTR stably expressed in NIH3T3 cells (Homo sapiens, UniProt P13569, DEL508-508).
T1 construct: expressed in transfected cells
T1 sequence (P13569 with tags, fused parts or gaps DEL508-508): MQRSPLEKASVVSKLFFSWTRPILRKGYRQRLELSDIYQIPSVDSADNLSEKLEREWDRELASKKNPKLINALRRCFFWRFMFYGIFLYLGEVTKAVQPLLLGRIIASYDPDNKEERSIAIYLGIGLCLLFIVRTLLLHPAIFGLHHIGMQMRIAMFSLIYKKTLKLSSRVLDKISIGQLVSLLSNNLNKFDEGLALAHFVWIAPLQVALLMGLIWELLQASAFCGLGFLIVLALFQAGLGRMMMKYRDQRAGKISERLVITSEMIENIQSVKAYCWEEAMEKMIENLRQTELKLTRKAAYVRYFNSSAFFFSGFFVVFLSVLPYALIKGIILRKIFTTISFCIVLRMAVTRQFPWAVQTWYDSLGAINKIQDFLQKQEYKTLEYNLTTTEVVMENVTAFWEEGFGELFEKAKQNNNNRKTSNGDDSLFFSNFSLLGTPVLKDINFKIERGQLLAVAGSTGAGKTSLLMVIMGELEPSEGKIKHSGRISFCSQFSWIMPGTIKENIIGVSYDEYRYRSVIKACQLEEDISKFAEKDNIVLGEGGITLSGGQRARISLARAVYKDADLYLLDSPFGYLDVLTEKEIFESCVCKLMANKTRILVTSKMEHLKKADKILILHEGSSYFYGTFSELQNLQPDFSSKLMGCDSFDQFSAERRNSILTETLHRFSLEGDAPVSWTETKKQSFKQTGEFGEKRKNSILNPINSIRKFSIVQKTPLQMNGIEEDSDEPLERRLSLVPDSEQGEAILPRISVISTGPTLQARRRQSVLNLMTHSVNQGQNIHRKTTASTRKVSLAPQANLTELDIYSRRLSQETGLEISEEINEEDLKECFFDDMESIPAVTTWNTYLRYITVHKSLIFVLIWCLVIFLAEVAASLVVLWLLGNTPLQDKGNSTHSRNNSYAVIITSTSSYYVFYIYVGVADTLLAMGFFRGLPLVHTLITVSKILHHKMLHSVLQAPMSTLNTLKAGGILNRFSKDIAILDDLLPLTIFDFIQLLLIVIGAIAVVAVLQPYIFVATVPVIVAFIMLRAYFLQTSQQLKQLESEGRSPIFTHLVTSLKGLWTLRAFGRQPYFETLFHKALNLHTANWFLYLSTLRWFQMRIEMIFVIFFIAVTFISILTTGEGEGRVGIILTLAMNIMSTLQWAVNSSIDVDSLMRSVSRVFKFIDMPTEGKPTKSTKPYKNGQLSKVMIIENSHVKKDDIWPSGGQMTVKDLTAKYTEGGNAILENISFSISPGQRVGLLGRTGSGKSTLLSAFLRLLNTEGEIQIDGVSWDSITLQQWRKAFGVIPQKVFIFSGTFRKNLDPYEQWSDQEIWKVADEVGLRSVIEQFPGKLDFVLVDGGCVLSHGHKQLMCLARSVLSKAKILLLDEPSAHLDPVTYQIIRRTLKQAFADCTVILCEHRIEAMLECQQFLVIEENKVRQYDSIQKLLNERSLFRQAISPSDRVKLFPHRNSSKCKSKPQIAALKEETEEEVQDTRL
Kind of test: Membrane potential optical (FRET/VIPR) assay for ΔF508-CFTR potentiation. The format is cell-based. Particulars: NIH3T3, read-out: % Efficacy (relative modulating efficacy in comparison with genistein), normalized to peak genistein response. An excerpt: Membrane potential optical methods for assaying ΔF508-CFTR potentiation properties of compounds.
These voltage sensitive assays are based on the change in fluorescence resonant energy transfer (FRET) between the membrane-soluble, voltage-sensitive dye, DiSBAC2(3), and a fluorescent phospholipid, CC2-DMPE, which is attached to the outer leaflet of the plasma membrane and acts as a FRET donor. Changes in membrane potential (Vm) cause the negatively charged DiSBAC2(3) to redistribute across the plasma membrane and the amount of energy transfer from CC2-DMPE changes accordingly. The changes in fluorescence emission were monitored using VIPR™ II, which is an integrated liquid handler and fluorescent detector designed to conduct cell-based screens in 96- or 384-well microtiter plates.
To identify potentiators of ΔF508-CFTR, a double-addition HTS assay format was developed (FIG. 1A). During the first addition, a Cl^−-free medium with or without test compound was added to each well. After 22 sec, a second addition of Cl^−-free medium containing 2-10 μM forskolin was added to activate ΔF508-CFTR. The extracellular Cl^− concentration following both additions was 28 mM, which promoted Cl^− efflux in response to ΔF508-CFTR activation and the resulting membrane depolarization was optically monitored using the FRET-based voltage-sensor dyes. The double-addition format has several advantages. First, it enables separation of compounds that act independently of forskolin-activated ΔF508-CFTR. Second, it allows compounds that act from the cytoplasmic surface of the channel to cross the plasma membrane and take effect. Lastly, fluorescent changes that arise from test compound addition alone can be identified.
High-throughput assay format for identifying potentiators of ΔF508-CFTR stably expressed in NIH3T3 cells.
FIG. 1A: Double-addition assay format in which Cl^−-free medium was added with or without the test compound prior to forskolin addition. The cells were incubated at 27° C. for 16-24 hr prior to use.
• Bath Solution #1: (in mM)NaCl 160, KCl 4.5, CaCl2 2, MgCl2 1, HEPES 10, pH 7.4 with NaOH. • Chloride-free bath solution: Chloride salts in Bath Solution #1 are substituted with gluconate salts. • CC2-DMPE: Prepared as a 10 mM stock solution in DMSO and stored at −20° C. • DiSBAC2(3): Prepared as a 10 mM stock in DMSO and stored at −20° C.
NIH3T3 mouse fibroblasts stably expressing ΔF508-CFTR are used for optical measurements of membrane potential. The cells are maintained at 37° C. in 5% CO2 and 90% humidity in Dulbecco's modified Eagle's medium supplemented with 2 mM glutamine, 10% fetal bovine serum, 1×NEAA, β-ME, 1×pen/strep, and 25 mM HEPES in 175 cm^2 culture flasks. For all optical assays, the cells were seeded at 30,000/well in 384-well matrigel-coated plates and cultured for 2 hrs at 37° C. before culturing at 27° C. for 24 hrs.
For the compound `CCSc1ncccc1-c1cc(-c2ccccc2)n[nH]1` [I-3], the Emax lay in the range of 35 to 75%.

Consider `Fc1ccccc1-c1cc(-c2ccccc2)n[nH]1` [I-4], for which the Emax lay in the range of 35 to 75%.

For the compound `CCCSc1ncccc1-c1cc(-c2ccccc2)n[nH]1` [I-5], the Emax was 35 to 75%.

Turning to `Fc1ccccc1-c1cc(-c2ccccc2F)[nH]n1` [I-6], the Emax was 35 to 75%.

For `Fc1ccccc1-c1cc(-c2ccccc2Cl)[nH]n1` [I-7], the Emax lay within 35 to 75%.

For the compound `Fc1ccccc1-c1cc(-c2cccc(Cl)c2)[nH]n1` [I-9], the Emax fell in the range of 35 to 75%.

As to `Fc1ccccc1-c1cc(-c2ccc3c(c2)OC(F)(F)O3)[nH]n1` [I-10], the Emax fell in the range of 35 to 75%.

For the compound `c1ccc(-c2cc(-c3cccc4c3OCO4)[nH]n2)cc1` [I-15], the Emax lay in the range of 35 to 75%.

Take `FC(F)(F)Oc1ccc(-c2cc(-c3ccccc3)n[nH]2)cc1` [I-16]: the Emax is 35 to 75%.

With `Fc1ccccc1-c1cc(-c2ccc(OC(F)(F)F)cc2)[nH]n1` [I-17], the Emax lay in the range of 35 to 75%.

Take `Fc1ccccc1-c1cc(-c2cccc(OC(F)(F)F)c2)[nH]n1` [I-18]: the Emax was in the range of 35 to 75%.

As to `Cc1cccc(-c2cc(-c3ccccc3)n[nH]2)c1` [I-19], the Emax was in the range of 35 to 75%.

For `COc1ccc(-c2cc(-c3ccccc3O)n[nH]2)cc1OC` [IA-1], the Emax was in the range of 35 to 75%.

In the case of `COc1ccc(O)c(-c2cc(-c3ccc(F)cc3)[nH]n2)c1` [IA-2], the Emax is 35 to 75%.

For `COc1cccc(O)c1-c1cc(-c2ccccc2)n[nH]1` [IA-3], the Emax lay within 35 to 75%.

On to `Cc1ccc(O)c(-c2cc(-c3ccccc3[N+](=O)[O-])[nH]n2)c1` [IA-5], for which the Emax was greater than 75%.

As to `Oc1ccc(F)cc1-c1cc(-c2ccccc2C(F)(F)F)[nH]n1` [IA-6], the Emax is greater than 75%.

In the case of `Cc1ccc(O)c(-c2cc(-c3ccc(-c4cccc(C(F)(F)F)c4)o3)n[nH]2)c1` [IA-7], the Emax was 35 to 75%.

With `Oc1ccccc1-c1cc(-c2ccc(F)cc2)[nH]n1` [IA-8], the Emax was 35 to 75%.

Consider `Cc1ccc(O)c(-c2cc(-c3ccc(OCc4ccccc4)cc3)n[nH]2)c1` [IA-10], for which the Emax is 35 to 75%.

Consider `COc1ccc(-c2cc(-c3ccccc3O)n[nH]2)cc1` [IA-11], for which the Emax was in the range of 35 to 75%.

For the compound `CCCc1ccc(O)c(-c2cc(-c3ccccc3)[nH]n2)c1` [IA-14], the Emax was greater than 75%.

Take `COc1ccc(O)c(-c2cc(-c3ccccc3C(F)(F)F)n[nH]2)c1` [IA-16]: the Emax was 35 to 75%.

Turning to `Cc1ccc(O)c(-c2cc(-c3ccc(C(F)(F)F)c(C)c3)n[nH]2)c1` [IA-17], the Emax lay in the range of 35 to 75%.

Regarding `COc1ccc(O)c(-c2cc(-c3ccccc3)[nH]n2)c1` [IA-18], the Emax was in the range of 35 to 75%.

On to `Oc1ccc(Cl)cc1-c1cc(-c2ccccc2)[nH]n1` [IA-19], for which the Emax fell in the range of 35 to 75%.

As for `O=[N+]([O-])c1ccccc1-c1cc(-c2cc(F)ccc2O)[nH]n1` [IA-20], the Emax is greater than 75%.

Turning to `Oc1ccc(F)cc1-c1cc(-c2ccccc2)n[nH]1` [IA-21], the Emax fell in the range of 35 to 75%.

Turning to `COc1ccc(-c2cc(-c3cc(C)ccc3O)n[nH]2)cc1` [IA-22], the Emax was in the range of 35 to 75%.

On to `Cc1ccccc1-c1cc(-c2ccccc2O)n[nH]1` [IA-24], for which the Emax lay within 35 to 75%.

As for `Cc1ccc(O)c(-c2cc(-c3ccc4c(c3)OCO4)n[nH]2)c1` [IA-25], the Emax was in the range of 35 to 75%.

For the compound `CC(C)c1ccc(O)c(-c2cc(-c3ccccc3)[nH]n2)c1` [IA-26], the Emax was greater than 75%.

In the case of `Cc1ccc(O)c(-c2cc(-c3cccnc3)n[nH]2)c1` [IA-27, 4-Methyl-2-(5-pyridin-3-yl-1H-pyrazol-3-yl)phenol], the Emax was 35 to 75%.

In the case of `Cc1ccc(O)c(-c2cc(-c3cccs3)n[nH]2)c1` [IA-28], the Emax was greater than 75%.

`Cc1ccc(O)c(-c2cc(-c3ccccc3-c3ccncc3)n[nH]2)c1` [IA-29]: the Emax fell in the range of 35 to 75%.

Consider `Cc1ccc(O)c(-c2cc(-c3ccccc3C#N)n[nH]2)c1` [IA-30], for which the Emax lay within 35 to 75%.

With `Oc1ccc(-c2cc(-c3ccccc3O)[nH]n2)cc1` [IA-33], the Emax was in the range of 35 to 75%.

Take `Cc1ccc(O)c(-c2cc(-c3ccccc3O)n[nH]2)c1` [IA-34]: the Emax is less than 35%.

In the case of `Cc1ccc(O)c(-c2cc(-c3ccc(Br)cc3)[nH]n2)c1` [IA-35], the Emax was greater than 75%.

`Cc1cc(O)c(-c2cc(-c3ccccc3)n[nH]2)cc1C` [IA-36]: the Emax lay in the range of 35 to 75%.

As to `CSc1ncccc1-c1cc(-c2ccccc2O)n[nH]1` [IA-37], the Emax fell in the range of 35 to 75%.

As for `COc1cccc(-c2n[nH]c(-c3ccccc3O)c2OC)c1` [IA-38], the Emax fell in the range of 35 to 75%.

Consider `CC(=O)Nc1cccc(-c2cc(-c3cc(C)ccc3O)[nH]n2)c1` [IA-40], for which the Emax lay in the range of 35 to 75%.

As for `Cc1ccc(O)c(-c2cc(-c3ccccc3C(F)(F)F)n[nH]2)c1` [IA-41], the Emax was 35 to 75%.

Regarding `Cc1ccc(O)c(-c2cc(-c3cc(C(F)(F)F)oc3C)n[nH]2)c1` [IA-42], the Emax was greater than 75%.

For the compound `Oc1cccc(-c2cc(-c3ccccc3O)[nH]n2)c1` [IA-43], the Emax was greater than 75%.

For the compound `Cc1ccc(O)c(-c2cc(-c3ccc(F)c(F)c3)n[nH]2)c1` [IA-44], the Emax was 35 to 75%.

Regarding `Cc1ccc(O)c(-c2cc(-c3ccccc3OC(F)(F)F)n[nH]2)c1` [IA-45], the Emax was greater than 75%.

Regarding `Cc1ccc(O)c(-c2cc(-c3ccccc3Cl)[nH]n2)c1` [IA-48], the Emax was less than 35%.

Regarding `Cc1ccc(O)c(-c2cc(-c3cc(C(C)(C)C)oc3C)n[nH]2)c1` [IA-50], the Emax lay within 35 to 75%.

As for `Cc1ccc(O)c(-c2cc(-c3ccc(F)c(Cl)c3)n[nH]2)c1` [IA-51], the Emax was in the range of 35 to 75%.

For `O=[N+]([O-])c1ccccc1-c1cc(-c2cc(Cl)ccc2O)n[nH]1` [IA-52], the Emax was greater than 75%.

With `Cc1ccc(O)c(-c2cc(-c3cccc(C)c3C)n[nH]2)c1` [IA-53], the Emax fell in the range of 35 to 75%.

On to `Oc1ccc(-c2nnn[nH]2)cc1-c1cc(-c2ccccc2)n[nH]1` [IA-54], for which the Emax is 35 to 75%.

As to `COc1ccc(O)c(-c2cc(-c3ccccc3Cl)[nH]n2)c1` [IA-55], the Emax was in the range of 35 to 75%.

For `Cc1ccc(O)c(-c2cc(-c3c(F)ccc(C)c3F)n[nH]2)c1` [IA-56], the Emax fell in the range of 35 to 75%.

On to `Cc1ccc(-c2cc(-c3ccccc3Cl)[nH]n2)c(O)c1` [IA-58], for which the Emax was 35 to 75%.

Regarding `Cc1ccc(-c2cc(-c3cc(C)ccc3O)n[nH]2)cc1` [IA-59], the Emax was in the range of 35 to 75%.

As to `COc1ccc(O)c(-c2cc(-c3ccccc3C)[nH]n2)c1` [IA-62], the Emax lay within 35 to 75%.

Regarding `Cc1ccc(-c2cc(-c3ccc(F)cc3)[nH]n2)c(O)c1` [IA-63], the Emax was less than 35%.

With `Cc1ccc(O)c(-c2cc(-c3cc(C(F)(F)F)nn3-c3ccc([N+](=O)[O-])cc3)n[nH]2)c1` [IA-65], the Emax lay within 35 to 75%.

For `COc1cccc(-c2cc(-c3cc(C)ccc3O)[nH]n2)c1` [IA-66], the Emax is 35 to 75%.

`Oc1ccccc1-c1cc(-c2ccccc2Cl)[nH]n1` [IA-68]: the Emax is 35 to 75%.

For `Oc1cc(F)ccc1-c1cc(-c2ccccc2)[nH]n1` [IA-70], the Emax lay in the range of 35 to 75%.

As for `Cc1ccc(O)c(-c2cc(C3CCCCC3)n[nH]2)c1` [IA-71], the Emax lay within 35 to 75%.

Consider `COc1ccc(-c2cc(-c3cc(C)ccc3O)[nH]n2)cc1C(F)(F)F` [IA-72], for which the Emax was 35 to 75%.

`Cc1ccc(O)c(-c2cc(-c3cccc(C(F)(F)F)c3C)n[nH]2)c1` [IA-74]: the Emax was 35 to 75%.

Consider `Cc1ccc(O)c(-c2cc(-c3ccc(-c4ccc(S(C)(=O)=O)cc4)o3)n[nH]2)c1` [IA-76], for which the Emax was in the range of 35 to 75%.

As for `COc1ccc(O)c(-c2cc(-c3cccnc3Oc3ccccc3)[nH]n2)c1` [IA-77], the Emax lay within 35 to 75%.

As to `Oc1ccccc1-c1cc(-c2c(F)cccc2F)n[nH]1` [IA-78], the Emax fell in the range of 35 to 75%.

For `Cc1ccc(O)c(-c2cc(-c3ccccc3SC(F)F)n[nH]2)c1` [IA-79], the Emax was less than 35%.

Take `CCOc1ccccc1-c1cc(-c2cc(C)ccc2O)[nH]n1` [IA-80]: the Emax is 35 to 75%.

Take `Oc1ccccc1-c1cc(-c2cccc(F)c2)[nH]n1` [IA-81]: the Emax fell in the range of 35 to 75%.

Take `Cc1ccc(-c2cc(-c3ccc(C)cc3O)n[nH]2)cc1` [IA-82]: the Emax was 35 to 75%.

For the origin of these results see patent publication US20120184583A1, “MODULATORS OF ATP-BINDING CASSETTE TRANSPORTERS” (VERTEX PHARMACEUTICALS INCORPORATED, priority 2003, published 2012).
